Experimental data as given in patent publication US20260297070A1, “CYCLIC [COMPOUND LEFT OUT] WRN INHIBITORS” (Nimbus Wadjet, Inc., priority 2023, published 2026).

Molecular target: T1, human Werner helicase (WRN-BV08, Uniprot Q14191, amino acids 517-1235 with L1074F point mutation) (Homo sapiens, UniProt Q14191, L1074F)
T1 construct: Uniprot Q14191, amino acids 517-1235 with L1074F point mutation; TEV-cleavable 8×His (C, cleaved yes); made in house; host or cells: Sf9 insect cells (baculovirus)
Assay: WRN (BV08) ADP-Glo Assay
Format: biochemical
Details: 0.15 nM WRN, 5 μM ATP, 0.1 nM DNA duplex, 15 min preincubation, 60 min at 25° C., pH 7.5, 1% DMSO; read-out: ADP-Glo_hWRN_IC50
Method in brief: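 Percent inhibition was normalised to DMSO (max) and 20 μM NSC-617145 (min) controls from ADP-Glo luminescence, and IC50 values came from a four-parameter fit. The reaction ran 60 min at 25 °C with 0.15 nM WRN, 5 μM ATP and 0.1 nM duplex DNA.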

T1 sequence (Q14191 with tags, fused parts or gaps L1074F limits assumed): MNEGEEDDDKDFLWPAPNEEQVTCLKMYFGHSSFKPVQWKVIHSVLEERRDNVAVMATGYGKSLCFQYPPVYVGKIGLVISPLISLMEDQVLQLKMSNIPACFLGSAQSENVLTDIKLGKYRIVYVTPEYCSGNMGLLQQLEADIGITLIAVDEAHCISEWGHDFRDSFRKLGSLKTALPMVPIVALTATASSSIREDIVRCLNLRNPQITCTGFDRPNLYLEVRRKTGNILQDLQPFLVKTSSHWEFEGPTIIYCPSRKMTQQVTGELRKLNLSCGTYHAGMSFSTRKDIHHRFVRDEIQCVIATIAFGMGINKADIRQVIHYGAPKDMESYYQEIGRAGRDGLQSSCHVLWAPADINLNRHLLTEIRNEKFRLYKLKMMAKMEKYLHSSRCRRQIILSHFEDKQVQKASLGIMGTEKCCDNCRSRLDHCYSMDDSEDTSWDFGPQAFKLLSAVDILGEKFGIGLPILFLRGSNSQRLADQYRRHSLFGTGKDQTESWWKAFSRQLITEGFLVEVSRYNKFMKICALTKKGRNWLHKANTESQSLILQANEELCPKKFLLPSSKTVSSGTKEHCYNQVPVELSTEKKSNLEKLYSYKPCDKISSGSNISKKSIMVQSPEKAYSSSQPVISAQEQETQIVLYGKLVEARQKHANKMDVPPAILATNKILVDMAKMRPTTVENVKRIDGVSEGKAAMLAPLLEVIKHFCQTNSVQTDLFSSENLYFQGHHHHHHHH

**Q.** With `CC(C)(O)c1cc(CN(C(=O)C(F)(F)c2ccc(-c3ccc(F)c(F)c3)cc2F)[C@@H]2C=CS(=O)(=O)C2)ccn1` [I-38, (R)—N-(1,1-dioxido-2,3-dihydrothiophen-3-yl)-2,2-difluoro-N-((2-(2-hydroxypropan-2-yl)pyridin-4-yl)methyl)-2-(3,3′,4′-trifluoro-[1,1′-biphenyl]-4-yl)acetamide] as the molecule, how does the IC50 read?
**A.** Its IC50 is under 500 nM.

**Q.** With `CC(C)(O)c1cc(CN(C(=O)Cc2ccc(S(F)(F)(F)(F)F)cc2)C2C=CS(=O)(=O)C2)ccn1` (stereo not drawn) [I-39, N-(1,1-dioxo-2,3-dihydro-1lambda6-thiophen-3-yl)-N-{[2-(2-hydroxypropan-2-yl)pyridin-4-yl]methyl}-2-[4-(pentafluoro-lambda6-sulfanyl)phenyl]acetamide] as the molecule, how does the IC50 read?
**A.** Its IC50 is under 500 nM.

**Q.** How did the IC50 turn out when `O=C(Cc1ccc(S(F)(F)(F)(F)F)cc1)N(Cc1nc(C2CC2)cs1)C1C=CS(=O)(=O)C1` (stereo not drawn) [I-41, N-[(4-cyclopropyl-1,3-thiazol-2-yl)methyl]-N-(1,1-dioxo-2,3-dihydro-1lambda6-thiophen-3-yl)-2-[4-(pentafluoro-lambda6-sulfanyl)phenyl]acetamide] was run?
**A.** The IC50 was under 500 nM.

**Q.** `CC(C)(O)c1cc(CN(C(=O)Cn2cc(-c3ccc(F)cc3)cn2)C2C=CS(=O)(=O)C2)ccn1` (stereo not drawn) [I-42, N-(1,1-dioxo-2,3-dihydro-1lambda6-thiophen-3-yl)-2-[4-(4-fluorophenyl)-1H-pyrazol-1-yl]-N-{[2-(2-hydroxypropan-2-yl)pyridin-4-yl]methyl}acetamide] was tested. Which IC50 did it give?
**A.** The IC50 was under 500 nM.

**Q.** `CC(C)(O)c1cc(CN(C(=O)Cn2cc(-c3ccccc3)cn2)[C@@H]2C=CS(=O)(=O)C2)ccn1` [I-43, N-[(3R)-1,1-dioxo-2,3-dihydro-1lambda6-thiophen-3-yl]-N-{[2-(2-hydroxypropan-2-yl)pyridin-4-yl]methyl}-2-(4-phenyl-1H-pyrazol-1-yl)acetamide] was tested. Which IC50 did it give?
**A.** The IC50 was under 500 nM.

**Q.** For `CC(C)(O)c1cc(CN(C(=O)Cc2ccc(S(F)(F)(F)(F)F)cc2F)C2C=CS(=O)(=O)C2)ccn1` (stereo not drawn) [I-44, N-(1,1-dioxo-2,3-dihydro-1lambda6-thiophen-3-yl)-2-[2-fluoro-4-(pentafluoro-lambda6-sulfanyl)phenyl]-N-{[2-(2-hydroxypropan-2-yl)pyridin-4-yl]methyl}acetamide], which IC50 is on record?
**A.** The IC50 was under 500 nM.

**Q.** Which IC50 does the source give for `COc1cc(CN(C(=O)C(OC)c2ccc(-c3ccc(F)c(F)c3)cc2F)C2C=CS(=O)(=O)C2)ccn1` (stereo not drawn) [I-45, N-(1,1-dioxo-2,3-dihydro-1lambda6-thiophen-3-yl)-2-methoxy-N-[(2-methoxypyridin-4-yl)methyl]-2-{3,3′,4′-trifluoro-[1,1′-biphenyl]-4-yl}acetamide] here?
**A.** The IC50 was under 500 nM.

**Q.** Which IC50 does the source give for `COc1cc(CN(C(=O)C(C(=O)N(C)C)c2ccc(-c3ccc(F)cc3)cc2F)C2C=CS(=O)(=O)C2)ccn1` (stereo not drawn) [I-46, 2-{3,4′-difluoro-[1,1′-biphenyl]-4-yl}-N-(1,1-dioxo-2,3-dihydro-1lambda6-thiophen-3-yl)-N-[(2-methoxypyridin-4-yl)methyl]-N′,N′-dimethylpropanediamide] here?
**A.** The IC50 was under 500 nM.

**Q.** For `COC(C(=O)N(Cc1nc(C2CC2)cs1)C1C=CS(=O)(=O)C1)c1ccc(-c2ccc(F)c(F)c2)cc1F` (stereo not drawn) [I-47, N-[(4-cyclopropyl-1,3-thiazol-2-yl)methyl]-N-(1,1-dioxo-2,3-dihydro-1lambda6-thiophen-3-yl)-2-methoxy-2-{3,3′,4′-trifluoro-[1,1′-biphenyl]-4-yl}acetamide], which IC50 is on record?
**A.** The IC50 was under 500 nM.

**Q.** How did the IC50 turn out when `O=C(C(c1ccc(-c2ccc(F)c(F)c2)cc1F)n1cccn1)N(Cc1ccncc1)C1C=CS(=O)(=O)C1` (stereo not drawn) [I-48, N-(1,1-dioxido-2,3-dihydrothiophen-3-yl)-2-(1H-pyrazol-1-yl)-N-(pyridin-4-ylmethyl)-2-(3,3′,4′-trifluoro-[1,1′-biphenyl]-4-yl)acetamide] was run?
**A.** Its IC50 is under 500 nM.

**Q.** `O=C(Cn1cc(-c2ccc(F)cc2)cn1)N(Cc1nc(C2CC2)cs1)C1C=CS(=O)(=O)C1` (stereo not drawn) [I-49, N-[(4-cyclopropyl-1,3-thiazol-2-yl)methyl]-N-(1,1-dioxo-2,3-dihydro-1lambda6-thiophen-3-yl)-2-[4-(4-fluorophenyl)-1H-pyrazol-1-yl]acetamide] was tested. Which IC50 did it give?
**A.** The IC50 was under 500 nM.

**Q.** How did the IC50 turn out when `CC(C)(O)c1cc(CN(C(=O)Cc2ccc(-c3ccc(F)cc3)cc2F)C2C=CS(=O)(=O)C2)ccn1` (stereo not drawn) [I-52, 2-{3,4′-difluoro-[1,1′-biphenyl]-4-yl}-N-(1,1-dioxo-2,3-dihydro-1lambda6-thiophen-3-yl)-N-{[2-(2-hydroxypropan-2-yl)pyridin-4-yl]methyl}acetamide] was run?
**A.** The IC50 was under 500 nM.

**Q.** For `COc1cc(CN(C(=O)C2CNc3cc(-c4ccc(F)cc4)ccc32)[C@@H]2C=CS(=O)(=O)C2)ccn1` (stereo partly drawn) [I-53, N-(1,1-dioxido-2,3-dihydrothiophen-3-yl)-6-(4-fluorophenyl)-N-((2-methoxypyridin-4-yl)methyl)indoline-3-carboxamide], which IC50 is on record?
**A.** The IC50 was under 500 nM.

**Q.** `COc1cc(CN(C(=O)Cn2cc(-c3cccc(F)c3)cn2)C2C=CS(=O)(=O)C2)ccn1` (stereo not drawn) [I-54, N-(1,1-dioxo-2,3-dihydro-1lambda6-thiophen-3-yl)-2-[4-(3-fluorophenyl)-1H-pyrazol-1-yl]-N-[(2-methoxypyridin-4-yl)methyl]acetamide] was tested. Which IC50 did it give?
**A.** The IC50 was under 500 nM.

**Q.** With `COc1cc(CN(C(=O)C(C(=O)N(C)C)c2ccc(-c3ccc(F)cc3)cc2)C2C=CS(=O)(=O)C2)ccn1` (stereo not drawn) [I-55, N-(1,1-dioxo-2,3-dihydro-1lambda6-thiophen-3-yl)-2-{4′-fluoro-[1,1′-biphenyl]-4-yl}-N-[(2-methoxypyridin-4-yl)methyl]-N′,N′-dimethylpropanediamide] as the molecule, how does the IC50 read?
**A.** The IC50 was under 500 nM.

**Q.** With `COc1cc(CN(C(=O)Cc2ccc(-n3cccc3C)cc2F)[C@@H]2C=CS(=O)(=O)C2)ccn1` [I-56, N-[(3R)-1,1-dioxo-2,3-dihydro-1lambda6-thiophen-3-yl]-2-[2-fluoro-4-(2-methyl-1H-pyrrol-1-yl)phenyl]-N-[(2-methoxypyridin-4-yl)methyl]acetamide] as the molecule, how does the IC50 read?
**A.** Its IC50 is under 500 nM.

**Q.** Which IC50 does the source give for `CC(C)(O)c1cc(CN(C(=O)Cn2cc(-c3ccc(Cl)cc3)cn2)C2C=CS(=O)(=O)C2)ccn1` (stereo not drawn) [I-58, 2-[4-(4-chlorophenyl)-1H-pyrazol-1-yl]-N-(1,1-dioxo-2,3-dihydro-1lambda6-thiophen-3-yl)-N-{[2-(2-hydroxypropan-2-yl)pyridin-4-yl]methyl}acetamide] here?
**A.** The IC50 was under 500 nM.

**Q.** Which IC50 does the source give for `CC(C)(O)c1cc(CN(C(=O)Cn2cc(-c3cccc(F)c3)cn2)C2C=CS(=O)(=O)C2)ccn1` (stereo not drawn) [I-59, N-(1,1-dioxo-2,3-dihydro-1lambda6-thiophen-3-yl)-2-[4-(3-fluorophenyl)-1H-pyrazol-1-yl]-N-{[2-(2-hydroxypropan-2-yl)pyridin-4-yl]methyl}acetamide] here?
**A.** The IC50 was under 500 nM.

**Q.** `Cc1cccn1-c1ccc(CC(=O)N(Cc2nc(C3CC3)cs2)C2C=CS(=O)(=O)C2)c(F)c1` (stereo not drawn) [I-60, N-[(4-cyclopropyl-1,3-thiazol-2-yl)methyl]-N-(1,1-dioxo-2,3-dihydro-1lambda6-thiophen-3-yl)-2-[2-fluoro-4-(2-methyl-1H-pyrrol-1-yl)phenyl]acetamide] was tested. Which IC50 did it give?
**A.** The IC50 was under 500 nM.

**Q.** How did the IC50 turn out when `CC(C)(O)c1cc(CN(C(=O)Cc2ccc(-n3cccc3)cc2F)C2C=CS(=O)(=O)C2)ccn1` (stereo not drawn) [I-61, N-(1,1-dioxo-2,3-dihydro-1lambda6-thiophen-3-yl)-2-[2-fluoro-4-(1H-pyrrol-1-yl)phenyl]-N-{[2-(2-hydroxypropan-2-yl)pyridin-4-yl]methyl}acetamide] was run?
**A.** Its IC50 is under 500 nM.

**Q.** Which IC50 does the source give for `CCN(CC)C(=O)C(C(=O)N(Cc1ccnc(C(C)(C)O)c1)C1C=CS(=O)(=O)C1)c1ccc(-c2ccc(F)c(F)c2)cc1F` (stereo not drawn) [I-62, N′-(1,1-dioxo-2,3-dihydro-1lambda6-thiophen-3-yl)-N,N-diethyl-N′-{[2-(2-hydroxypropan-2-yl)pyridin-4-yl]methyl}-2-{3,3′,4′-trifluoro-[1,1′-biphenyl]-4-yl}propanediamide] here?
**A.** Its IC50 is under 500 nM.

**Q.** For `O=C(Cc1ccc(S(F)(F)(F)(F)F)cc1)N(Cc1ccncc1)C1C=CS(=O)(=O)C1` (stereo not drawn) [I-63, N-(1,1-dioxo-2,3-dihydro-1lambda6-thiophen-3-yl)-2-[4-(pentafluoro-lambda6-sulfanyl)phenyl]-N-[(pyridin-4-yl)methyl]acetamide], which IC50 is on record?
**A.** The IC50 was under 500 nM.

**Q.** For `COc1cc(CN(C(=O)Cc2ccc(-c3ccc(F)c(F)c3)cc2F)C2C=CS(=O)(=O)C2)ccn1` (stereo not drawn) [I-64, N-(1,1-dioxo-2,3-dihydro-1lambda6-thiophen-3-yl)-N-[(2-methoxypyridin-4-yl)methyl]-2-{3,3′,4′-trifluoro-[1,1′-biphenyl]-4-yl}acetamide], which IC50 is on record?
**A.** The IC50 was under 500 nM.

**Q.** Which IC50 does the source give for `Cc1cccn1-c1ccc(CC(=O)N(Cc2ccnc(C3(O)CCC3)c2)C2C=CS(=O)(=O)C2)c(F)c1` (stereo not drawn) [I-65, N-(1,1-dioxido-2,3-dihydrothiophen-3-yl)-2-(2-fluoro-4-(2-methyl-1H-pyrrol-1-yl)phenyl)-N-((2-(1-hydroxycyclobutyl)pyridin-4-yl)methyl)acetamide] here?
**A.** Its IC50 is under 500 nM.

**Q.** With `Cc1cccn1-c1ccc(CC(=O)N(Cc2ccnc(C(C)(C)O)c2)C2C=CS(=O)(=O)C2)c(F)c1` (stereo not drawn) [I-66, N-(1,1-dioxo-2,3-dihydro-1lambda6-thiophen-3-yl)-2-[2-fluoro-4-(2-methyl-1H-pyrrol-1-yl)phenyl]-N-{[2-(2-hydroxypropan-2-yl)pyridin-4-yl]methyl}acetamide] as the molecule, how does the IC50 read?
**A.** Its IC50 is under 500 nM.

**Q.** `Cc1cccn1-c1ccc(CC(=O)N(Cc2ccnc(OCC(F)(F)F)c2)C2C=CS(=O)(=O)C2)c(F)c1` (stereo not drawn) [I-67, N-(1,1-dioxo-2,3-dihydro-1lambda6-thiophen-3-yl)-2-[2-fluoro-4-(2-methyl-1H-pyrrol-1-yl)phenyl]-N-{[2-(2,2,2-trifluoroethoxy)pyridin-4-yl]methyl}acetamide] was tested. Which IC50 did it give?
**A.** The IC50 was under 500 nM.

**Q.** For `COc1cc(CN(C(=O)Cn2cc(-c3ccc(F)cc3)cn2)C2C=CS(=O)(=O)C2)ccn1` (stereo not drawn) [I-68, N-(1,1-dioxo-2,3-dihydro-1lambda6-thiophen-3-yl)-2-[4-(4-fluorophenyl)-1H-pyrazol-1-yl]-N-[(2-methoxypyridin-4-yl)methyl]acetamide], which IC50 is on record?
**A.** Its IC50 is under 500 nM.
